# Laboratory results: patent US8415453B2, “Lung cancer-targeted peptides and applications thereof” (Academia Sinica, priority 2007, dated 2013)
# Where no end group is shown, it is not given here. The star is where a group is joined. FITC = O=C1OC2(c3ccc(O)cc3Oc3cc(O)ccc32)c2ccc(NC(=S)*)cc21
# Experiments:
# [1] = test system: H23 cells; assay: Peptide-binding assay with FITC-labeled peptide, immunofluorescent staining; format: cell-based, human
# Procedure: (§1) To investigate whether the synthetic peptide and the selected phage clone competed for the same binding site, a peptide-competitive inhibition assay was performed by immunofluorescent staining. Targeting peptide TDSILRSYDWTY (SP5-2) [SEQ ID NO: 2] and control peptide (RLLDTNRPLLPY) [SEQ ID NO: 22] were synthesized and purified by reverse-phase high-performance liquid chromatography to >95% purity by Invitrogene, Inc. (CA, USA). Conjugation of these peptides with FITC or biotin was performed by adding FITC or biotin to the peptide NH2 terminus by the same company.
# [2] = test system: PC13 cells; assay: as above; format: cell-based, human
# Procedure: as §1
# [3] = test system: CL1-5 cells; assay: as above; format: cell-based, human
# Procedure: as §1
# [4] = test system: H460 cells; assay: as above; format: cell-based, human
# Procedure: as §1
# [5] = test system: A549 cells; assay: as above; format: cell-based, human
# Procedure: as §1
# [6] = test system: CL1-5-derived tumors; assay: In vivo tumor homing, phage titers recovered from tumor and organs; design: species or system SCID mice; details: for effect of co-injected peptide on recovery of PC5-2 from tumor mass: co-injection of 100 μg peptide
# Procedure: (§2) To investigate the targeting ability of PC5-2 in vivo, phages were injected into the tail vein of mice bearing CL1-5-derived tumors and recovered after perfusion. SCID mice were injected subcutaneously into the dorsolateral flank with 1×10^7 cancer cells. The mice bearing size-matched lung cancer-derived tumor (tumor sizes about 500 mm3) were injected with targeting phage or control phage through the tail vein. Eight minutes after injection, the mice were treated with diethyl ether to drive them into deep anesthesia. Then the mice were perfused with 50 ml PBS to wash unbound phage. The control organs (brain, heart, and lung) and tumor mass were removed, weighed, and washed three times with cold PBS-PI (protease inhibitor cocktail tablet; Roche, Germany). The organ and tumor samples were homogenized. Then, the phage bound to the tumor mass or control organs were rescued by adding 0.5 ml ER2738 bacterial for 30 minutes at 37° C. The eluted phage particles were titered on agar plates in the presence of 1 mg/L of IPTG/X-Gal. In peptide competitive inhibition experiments, the phages were co-injected with 100 μg of synthetic peptide. We also used the control peptide. The organs and tumor masses were fixed in Bouin's solution for 2 h. After fixation, the samples were embedded in paraffin blocks. The paraffin sections were deparaffinized, rehydrated and subjected to immunostaining using M13 monoclonal antibody, as mentioned above.
# [7] = test system: CL1-5 cells; assay: Peptide-competitive inhibition assay by immunofluorescent staining; format: cell-based, human
# Procedure: as §1
# Phages were mixed with different concentrations of synthetic peptides and incubated with cells at 4° C. for 1 h. The slides were further incubated with mouse anti-M13 monoclonal antibody (Amersham Biosciences, Uppsala, Sweden), followed by incubation with FITC-labeled goat anti-mouse antibody (Jackson ImmunoResearch). The slides were washed and mounted with mounting medium (Vector, Calif., USA). Then the slides were examined under a Leica Universal microscope. The images were merged by SimplePCI (C-IMAGING, PA, USA) software.
# [8] = test system: CL1-5 cells; assay: Flow cytometry of phage-bound cells; format: cell-based, human; details: peptide competitive inhibition
# Procedure: Furthermore, to investigate the target molecule expressed on the cell surface of CL1-5, we measured PC5-2-bound cells using flow cytometry. Lung and other cancer cell lines were cultured overnight and then suspended in PBS containing 50 mM EDTA and blocked with blocking buffer at 4° C. for 30 minutes. The cells were washed 2 times with flow buffer (PBS containing 1% fetal bovine serum). The cells were incubated with phages or FITC-labeled peptide. For the peptide competitive inhibition assay, the phages were mixed with different concentrations of synthetic peptides and the mixture was incubated with the cells. After washing two times with cold flow buffer, the phage-bound cells were incubated with anti-M13 monoclonal antibodies at 4° C. for 1 h and then treated with FITC-conjugated goat anti-mouse IgG antibody. The cells were washed two times with cold flow buffer and then applied to a flow cytometer (Becton Dickinson).
# [9] = test system: NSCLC xenografts; assay: In vivo tissue distribution of phage by immunostaining; design: species or system SCID mice; details: in vivo homing
# Procedure: as §2, with “The paraffin sections were deparaffinized, rehydrated and subjected to immunostaining using M13 monoclonal antibody, as mentioned above.” left out
Substance,binding of FITC-labeled peptide to cells [1],binding of FITC-labeled peptide to cells [2],binding of FITC-labeled peptide to cells [3],binding of FITC-labeled peptide to cells [4],binding of FITC-labeled peptide to cells [5],effect of co-injected peptide on recovery of PC5-2 from tumor mass [6],effect of synthetic peptide on binding of PC5-2 phage to CL1-5 cells [7],effect of peptide on phage bound to CL1-5 cells [8],inhibition of PC5-2 binding to tumor mass ([6]; co-injection of one hundred micrograms of peptide) [%],effect of peptide on targeting of PC5-2 to NSCLC xenograft [9],peptide concentration able to inhibit the PC5-2 binding activity completely ([7]; CL1-5) [µg/mL]
FITC-labeled control peptide: control peptide RLLDTNRPLLPY with FITC at the NH2 terminus ({FITC}-RLLDTNRPLLPY),no such binding activity,no such binding activity,no such binding activity,no such binding activity,no such binding activity,,,,,,
RLLDTNRPLLPY [control peptide],,,,,,no such inhibitory effect,no such effect,,,,
TDSILRSYDWTY [SP5-2],,,,,,markedly inhibited,inhibited,completely inhibited,92,inhibited,27
